From patent US12630521B2, “Arylamides and methods of use thereof” (Genzyme Corporation, priority 2019, dated 2026) come the findings set out here.

Experiment [1] has as its target T1, human Cystic Fibrosis Transmembrane Conductance Regulator (CFTR) harboring the ΔF508 mutation (Homo sapiens, UniProt P13569, DEL508-508).
T1 construct: expressed in transfected cells; host or cells: H441 carcinoma cell line (G418 selection)
In words: H441 cell Emax and EC50: HRP-tagged ΔF508-CFTR cell-surface luminescence assay. It is filed as cell-based. The following applies: H441 cells expressing HRP-tagged ΔF508-CFTR, 27° C. for two nights; for EC50: 15-point dose-response; for Emax: NCI-H441, % of maximum VX809 signal. From the text:
Example 36: H441 Cell Emax and EC50
Two cell lines were used, the H441 carcinoma line and the CFHBE41o− (41o−) human bronchial epithelial line. Both cell lines expressed human Cystic Fibrosis Transmembrane Conductance Regulator (CFTR) harboring the ΔF508 mutation and with an in-frame fusion in CFTR extracellular loop 4 of Horse Radish Peroxidase (HRP) under control of the CMV promoter. In the presence of the HRP tag, ΔF508-CFTR transported to the cell surface was detectable upon addition of an HRP substrate (Luminata Forte). Both cell types were cultivated at 37° C. with CO2.
For both cell types, the medium was changed every other day unless the culture was at low % confluence. Cells were used for the assays at ˜75% confluence.
DMSO/Compound Dilutions Plate for 15-Point Dose-Response Testing
To a polypropylene (PP) 384-well plate, 15 μls DMSO was added to all wells in columns 1-22 and 24 (low Control). 15 μls of 260 μM VX809 (Lumacaftor), Selleckchem S1565, was added to column 23 wells (high Control). 15 μls of 10 mM test compound or VX809 (control) were added to wells of row A. Serial dilutions of Row A compound were performed 2×15 μls in rows A through 0 (15-point).
A PP, 384-well plate containing the appropriate cell culture medium was prepared for each assay plate with 100 μls per well. For the doxycycline-induced 41o− cells, doxycycline for both the assay plate and the medium dilution plate was added at 0.0005 mg/ml to the medium.
Both cell lines were plated for the assay at 30 μls per 384-well at 3.4×10^e5 cells per ml (˜10K cells/well). H441 cells were plated on opaque, white, Corning plate 3704. 41o− cells were plated on collagen-coated opaque, white, Corning plate 356665. For 41o− cells, doxycycline was added to the medium.
Compound Addition/Assay Incubation
Using FX (Beckman) protocol, 10 μls diluted compound or medium was added per well to the Assay Plate as: 2 μls DMSO Dilution plate well is diluted in 100 μls of the Medium Dilution Plate well, mixed, and 10 μls is transferred to the Assay Plate.
The final assay dilution series is 24.5, 12.3, 6.1, 3.1, 1.5, 0.8, 0.4, 0.2, 0.1, 0.05, 0.02, 0.01, 0.006, 0.003, 0.001 and 0 μM. The 41o− assay plates were incubated at 37° C. w/CO2, the H441 assay plates were incubated at 27° C. w/CO2, each overnight for two nights.
Assay Result Determination
After being brought to room temperature, the assay plate liquid was removed. 30 uls of Luminata Forte (Millipore ELLUF0100) was added per well and incubated at room temperature for 10 min. The plates were then read on a Topcount, protocol LumiMatti (CPS, luminescence). The data was analyzed for % of maximum, maximum VX809 signal, and EC50 using Pearl and SPEED tools.

The target of experiment [2] is T2, CFTR (ΔF508 homozygous CF-HBE cells) (Homo sapiens, UniProt P13569, DEL508-508).
T2 construct: Primary human bronchial epithelial cells from a ΔF508 homozygous CF donor; host or cells: primary CF-HBE cells (ΔF508/ΔF508 donor)
T2 sequence (P13569 with tags, fused parts or gaps DEL508-508): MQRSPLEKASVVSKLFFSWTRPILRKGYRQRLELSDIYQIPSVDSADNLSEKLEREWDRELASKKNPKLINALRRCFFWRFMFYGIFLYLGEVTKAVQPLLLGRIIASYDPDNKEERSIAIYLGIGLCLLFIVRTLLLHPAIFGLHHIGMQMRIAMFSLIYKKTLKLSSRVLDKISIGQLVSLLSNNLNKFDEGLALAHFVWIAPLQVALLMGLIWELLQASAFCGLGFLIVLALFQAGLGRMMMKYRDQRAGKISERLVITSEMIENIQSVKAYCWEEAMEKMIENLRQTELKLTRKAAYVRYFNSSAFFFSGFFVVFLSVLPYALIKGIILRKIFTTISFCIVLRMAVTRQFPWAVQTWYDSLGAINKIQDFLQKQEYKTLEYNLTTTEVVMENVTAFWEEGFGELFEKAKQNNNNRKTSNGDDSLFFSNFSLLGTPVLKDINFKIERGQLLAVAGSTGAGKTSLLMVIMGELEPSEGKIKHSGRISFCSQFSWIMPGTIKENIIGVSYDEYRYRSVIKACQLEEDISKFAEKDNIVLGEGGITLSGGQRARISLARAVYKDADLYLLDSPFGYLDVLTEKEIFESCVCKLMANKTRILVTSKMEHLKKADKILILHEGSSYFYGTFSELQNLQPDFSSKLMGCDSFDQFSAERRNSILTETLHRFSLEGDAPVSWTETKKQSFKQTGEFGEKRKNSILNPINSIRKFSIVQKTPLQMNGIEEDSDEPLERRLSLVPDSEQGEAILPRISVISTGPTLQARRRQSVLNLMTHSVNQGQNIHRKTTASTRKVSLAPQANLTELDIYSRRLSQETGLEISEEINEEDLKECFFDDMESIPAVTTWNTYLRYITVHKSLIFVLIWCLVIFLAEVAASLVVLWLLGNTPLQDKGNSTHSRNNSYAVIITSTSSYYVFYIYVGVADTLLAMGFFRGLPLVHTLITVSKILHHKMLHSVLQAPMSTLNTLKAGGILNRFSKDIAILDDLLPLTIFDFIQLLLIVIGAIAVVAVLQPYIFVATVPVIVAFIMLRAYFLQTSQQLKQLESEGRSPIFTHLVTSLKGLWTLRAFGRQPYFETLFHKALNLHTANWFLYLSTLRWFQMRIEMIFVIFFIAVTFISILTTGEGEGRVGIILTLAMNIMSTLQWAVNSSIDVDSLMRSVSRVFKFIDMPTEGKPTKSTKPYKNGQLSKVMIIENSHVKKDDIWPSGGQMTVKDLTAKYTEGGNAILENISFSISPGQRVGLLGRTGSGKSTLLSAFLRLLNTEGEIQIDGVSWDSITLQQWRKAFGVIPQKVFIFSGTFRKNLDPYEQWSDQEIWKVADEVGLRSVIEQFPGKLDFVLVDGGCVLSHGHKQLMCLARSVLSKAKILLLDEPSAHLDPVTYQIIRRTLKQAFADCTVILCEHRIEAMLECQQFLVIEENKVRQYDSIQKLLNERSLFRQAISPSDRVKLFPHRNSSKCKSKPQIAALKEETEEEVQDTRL
In words: TECC24 AUC fold over DMSO @10 uM: CFTR-mediated transepithelial chloride transport in primary CF-HBE cells. It counts as cell-based. The conditions noted are these: 10 μM test agent, 48 hours, forskolin-stimulated IEQ AUC divided by vehicle AUC. On the procedure:
Example 37: TECC24 AUC Fold Over DMSO @10 uM
The effects of a test agent on CFTR-mediated transepithelial chloride transport was measured using TECC24 recording analysis. Test agents were solubilized in DMSO. Solubilized test agents were mixed with incubation medium containing DMEM/F12, Ultroser G (2%; Crescent Chemical, catalog #67042), Hyclone Fetal Clone 11(2%; GE Healthcare, catalog #SH30066.02), bovine brain extract (0.25%; Lonza, catalog #CC-4098), insulin (2.5 μg/mL), IL-13 (10 ng/mL), hydrocortisone (20 nM), transferrin (2.5 μg/mL), triiodothyronine (500 nM), ethanolamine (250 nM), epinephrine (1.5 μM), phosphoethanolamine (250 nM), and retinoic acid (10 nM). Primary human bronchial epithelial cells from a ΔF508 homozygous CF donor (CF-HBE cells; from University of North Carolina Cystic Fibrosis Tissue Procurement Center), grown on Transwell HTS 24-well cell culture inserts (Costar, catalog #3378), were exposed to test agents or controls dissolved in incubation medium. The CF-HBE cells were cultured at 36.5° C. for 48 hours before TECC24 recordings were performed in the presence or absence of test agent, a positive control or vehicle (DMSO).
Following incubation, the transwell cell culture inserts containing the test agent or control-treated CF-HBE cells were loaded onto a TECC24 apparatus (TECC v7 or MTECC v2; EP Design) to record the transepithelial voltage (VT) and resistance (TEER) using 4 AgCl electrodes per well configured in current-clamp mode. The apical and basolateral bath solutions both contained (in mM) 140 NaCl, 5 KCl, 2 CaCl2, 1 MgCl2, 10 Hepes, and 10 glucose (adjusted to pH 7.4 with NaOH). To inhibit basal Na+ absorption, the ENaC inhibitor benzamil (10 μM) was added to the bath. Then, the adenylate cyclase activator, forskolin (10 μM), was added to the bath to activate CFTR. The forskolin-stimulated Cl— transport was halted by addition of CFTR inhibitor-172 (20 μM) to the bath at the end of the experiment to confirm specificity. VT and TEER recordings were digitally acquired at routine intervals using TECC or MTECC software (EP Design). VT and TEER were transformed into equivalent transepithelial Cl-current (IEQ), and the Area Under the Curve (AUC) of the IEQ time course between forskolin and CFTR inhibitor-172 addition is generated using Excel (Microsoft). Efficacy is expressed as the ratio of the test agent AUC divided by vehicle AUC. EC50s based on AUC are generated using the non-linear regression log(agonist) vs. response function in Prism software (GraphPad) with Hill Slope fixed=1.
If a test agent increased the AUC of the forskolin-stimulated IEQ relative to vehicle in CF-HBE cells, and this increase was inhibited by CFTR inhibitor-172, then the test agent was considered a CFTR corrector.

T1 sequence (P13569 with tags, fused parts or gaps DEL508-508): as above

In experiment [1], `Cc1cc2ccc(C(=O)N[C@H](C(=O)O)C(C)(C)C)c(OCc3ccc(C(F)(F)F)cc3)c2s1` [Compound 33-11, (2S)-3,3-dimethyl-2-(2-methyl-7-((4-(trifluoromethyl)benzyl)oxy)-benzo[b]thiophene-6-carboxamido)butanoic acid] returned an EC50 of 474 nM and a maximal response (Emax) of 187%. In addition, the “TECC24 AUC fold over DMSO” value in experiment [2] is reported as “B (“B” refers to AUC @10 μM between 4-6)”.

As to `CC(C)c1cc2ccc(C(=O)N[C@H](C(=O)O)C(C)(C)C)c(OCc3ccc(OC(F)(F)F)cc3)c2s1` [Compound 33-12, (2S)-2-(2-isopropyl-7-((4-(trifluoromethoxy)benzyl)oxy)-benzo[b]thiophene-6-carboxamido)-3,3-dimethylbutanoic acid], in experiment [1], a half-maximal effect (EC50) was put at 999 nM and the maximum response (Emax) came to 150%. In experiment [2], the “TECC24 AUC fold over DMSO” value is “C (“C” refers to AUC @10 μM < 4)”.

In experiment [1], `Cc1cc2c(OCc3ccc(OC(F)(F)F)cc3)c(C(=O)N[C@H](C(=O)O)C(C)(C)C)ccc2s1` [Compound 33-13, (2S)-3,3-dimethyl-2-(2-methyl-4-((4-(trifluoromethoxy)benzyl)oxy)-benzo[b]thiophene-5-carboxamido)butanoic acid] registered a concentration giving a half-maximal response (EC50) of 377 nM and an Emax of 324%. For the same molecule, in experiment [2], the “TECC24 AUC fold over DMSO” value is listed as “A (“A” refers to AUC @10 μM > 6)”.

Regarding `CCC(C)(C)[C@H](NC(=O)c1ccc2sc(OC)cc2c1OCc1ccc(C(F)(F)F)cc1)C(=O)O` [Compound 33-14, (2S)-2-(2-methoxy-4-((4-(trifluoromethyl)benzyl)oxy)-benzo[b]thiophene-5-carboxamido)-3,3-dimethylpentanoic acid], in experiment [1], the EC50 is 1980 nM and the Emax was 422%. In addition, in experiment [2], the “TECC24 AUC fold over DMSO” value is listed as “A (“A” refers to AUC @10 μM > 6)”.

In experiment [1], `CCC(C)(C)[C@H](NC(=O)c1ccc2cc(Cl)sc2c1OCc1ccc(C(F)(F)F)cc1)C(=O)O` [Compound 33-15, (2S)-2-(2-chloro-7-((4-(trifluoromethyl)benzyl)oxy)-benzo[b]thiophene-6-carboxamido)-3,3-dimethylpentanoic acid] yielded an EC50 of 880 nM and an Emax of 200%. Also, the “TECC24 AUC fold over DMSO” value in experiment [2] is listed as “A (“A” refers to AUC @10 μM > 6)”.

In experiment [1], `CCC(C)(C)[C@H](NC(=O)c1ccc2sc(CCC(C)C)cc2c1OCc1ccc(C(F)(F)F)cc1)C(=O)O` [Compound 33-16, (2S)-2-(2-isopentyl-4-((4-(trifluoromethyl)benzyl)oxy)-benzo[b]thiophene-5-carboxamido)-3,3-dimethylpentanoic acid] had an EC50 of 340 nM and an Emax of 218%. For the same molecule, the “TECC24 AUC fold over DMSO” value in experiment [2] is reported as “B (“B” refers to AUC @10 μM between 4-6)”.

`CC(C)(C)[C@H](NC(=O)c1ccc2sc(-c3cscn3)cc2c1OCc1ccc(C(F)(F)F)cc1)C(=O)O` [Compound 33-17, (2S)-3,3-dimethyl-2-(2-(thiazol-4-yl)-4-((4-(trifluoromethyl)benzyl)oxy)-benzo[b]thiophene-5-carboxamido)butanoic acid]: in experiment [1], the EC50 was found to be 3200 nM and the Emax turned out to be 57.7%. Also, the “TECC24 AUC fold over DMSO” value in experiment [2] is given as “C (“C” refers to AUC @10 μM < 4)”.

In experiment [1], `CCC(C)(C)[C@H](NC(=O)c1ccc2cc(C)sc2c1OCc1ccc(OC(F)(F)F)cc1)C(=O)O` [Compound 33-18, (2S)-3,3-dimethyl-2-(2-methyl-7-((4-(trifluoromethoxy)benzyl)oxy)-benzo[b]thiophene-6-carboxamido)pentanoic acid] came in with a concentration giving a half-maximal response (EC50) of 1150 nM and an Emax of 217%. The “TECC24 AUC fold over DMSO” value in experiment [2] is “A (“A” refers to AUC @10 μM > 6)”.

Turning to `CCC(C)(C)[C@H](NC(=O)c1ccc2cc(C)sc2c1OCc1ccc(C(F)(F)F)cc1)C(=O)O` [Compound 33-19, (2S)-3,3-dimethyl-2-(2-methyl-7-((4-(trifluoromethyl)benzyl)oxy)-benzo[b]thiophene-6-carboxamido)pentanoic acid], in experiment [1], the 50% effective concentration (EC50) is 427 nM and the Emax is 255%. Also, the “TECC24 AUC fold over DMSO” value in experiment [2] is given as “A (“A” refers to AUC @10 μM > 6)”.

In the case of `CCC(C)(C)[C@H](NC(=O)c1ccc2sc(-c3cscn3)cc2c1OCc1ccc(C(F)(F)F)cc1)C(=O)O` [Compound 33-20, (2S)-3,3-dimethyl-2-(2-(thiazol-4-yl)-4-((4-(trifluoromethyl)benzyl)oxy)-benzo[b]thiophene-5-carboxamido)pentanoic acid], in experiment [1], the response was half-maximal at 2780 nM (EC50) and the Emax worked out at 81.2%. For the same molecule, the “TECC24 AUC fold over DMSO” value in experiment [2] was “C (“C” refers to AUC @10 μM < 4)”.

In experiment [1], `CCc1cc2c(OCc3ccc(C(F)(F)F)cc3)c(C(=O)N[C@H](C(=O)O)C(C)(C)C)ccc2s1` [Compound 33-21, (2S)-2-(2-ethyl-4-((4-(trifluoromethyl)benzyl)oxy)-benzo[b]thiophene-5-carboxamido)-3,3-dimethylbutanoic acid] showed an EC50 of 337 nM and an Emax of 268%. The “TECC24 AUC fold over DMSO” value in experiment [2] was “A (“A” refers to AUC @10 μM > 6)”.

In experiment [1], `CCC(C)(C)[C@H](NC(=O)c1ccc2cc(Cl)sc2c1OCc1ccc(OC(F)(F)F)cc1)C(=O)O` [Compound 33-22, (2S)-2-(2-chloro-7-((4-(trifluoromethoxy)benzyl)oxy)-benzo[b]thiophene-6-carboxamido)-3,3-dimethylpentanoic acid] registered a concentration giving a half-maximal response (EC50) of 755 nM and a maximal response (Emax) of 169%. In addition, the “TECC24 AUC fold over DMSO” value in experiment [2] is “A (“A” refers to AUC @10 μM > 6)”.

In experiment [1], `CCc1cc2c(OCc3ccc(OC(F)(F)F)cc3)c(C(=O)N[C@H](C(=O)O)C(C)(C)C)ccc2s1` [Compound 33-23, (2S)-2-(2-ethyl-4-((4-(trifluoromethoxy)benzyl)oxy)-3a,7a-benzo[b]thiophene-5-carboxamido)-3,3-dimethylbutanoic acid] showed an EC50 of 1130 nM and a maximum response (Emax) of 315%. Also, the “TECC24 AUC fold over DMSO” value in experiment [2] was “A (“A” refers to AUC @10 μM > 6)”.

By EC50 is commonly meant the concentration at which the effect is half-maximal. A low value points to an effect from little substance. As usually defined, the Emax is the maximal effect, on the per cent scale that the assay sets.
